Drawing on ChEMBL document CHEMBL1909046, “DrugMatrix in vitro pharmacology data”, this text covers IC50 for three compounds.

The structures appear in SMILES notation.

One experiment concerns the target T1, Alpha-1B adrenergic receptor (Rattus norvegicus, UniProt P15823).
T1 sequence (P15823 whole entry): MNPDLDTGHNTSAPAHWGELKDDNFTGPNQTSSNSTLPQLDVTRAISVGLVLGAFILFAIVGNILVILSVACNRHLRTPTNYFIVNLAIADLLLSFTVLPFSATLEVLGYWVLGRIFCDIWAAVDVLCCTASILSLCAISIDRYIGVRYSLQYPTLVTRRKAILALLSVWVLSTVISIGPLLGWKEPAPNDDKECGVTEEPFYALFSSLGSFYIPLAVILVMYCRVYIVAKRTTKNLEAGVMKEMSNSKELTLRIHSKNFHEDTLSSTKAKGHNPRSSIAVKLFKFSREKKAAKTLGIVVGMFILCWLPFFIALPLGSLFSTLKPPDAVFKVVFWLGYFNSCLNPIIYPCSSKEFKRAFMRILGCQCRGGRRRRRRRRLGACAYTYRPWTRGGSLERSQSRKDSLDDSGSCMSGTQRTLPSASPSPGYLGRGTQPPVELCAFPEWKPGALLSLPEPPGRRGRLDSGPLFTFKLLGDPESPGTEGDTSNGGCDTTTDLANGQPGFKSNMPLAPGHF
The experiment in a line: DRUGMATRIX: Alpha-1B adrenergic receptor radioligand binding (ligand: prazosin). The settings on record: Not Active = under 50% inhibition at 10 µM. It is filed as cell membranes, Wistar, Liver, Membrane.
`COc1cccc2c1C(=O)c1c(O)c3c(c(O)c1C2=O)C[C@@](O)(C(=O)CO)C[C@@H]3O[C@H]1C[C@H](N)[C@H](O)[C@H](C)O1` [DOXORUBICIN]: the IC50 result is given as “Not Active”.

For `COc1cccc2c1C(=O)c1c(O)c3c(c(O)c1C2=O)C[C@@](O)(C(=O)CO)C[C@@H]3O[C@H]1C[C@H](N)[C@@H](O)[C@H](C)O1` [EPIRUBICIN], the IC50 entry is “Not Active”.

`C[C@]12CC[C@@H]3c4ccc(OC(=O)c5ccccc5)cc4CC[C@H]3[C@@H]1CC[C@@H]2O` [ESTRADIOL BENZOATE]: the IC50 result is “Not Active”.

The target in the next experiment is T2, Thromboxane-A synthase (Homo sapiens, UniProt P24557).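 Note: enzyme inhibition assay with PGH2 supplied as substrate; in other assays of this panel Not Active means under 50% inhibition at 10 µM.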
T2 sequence (P24557 whole entry): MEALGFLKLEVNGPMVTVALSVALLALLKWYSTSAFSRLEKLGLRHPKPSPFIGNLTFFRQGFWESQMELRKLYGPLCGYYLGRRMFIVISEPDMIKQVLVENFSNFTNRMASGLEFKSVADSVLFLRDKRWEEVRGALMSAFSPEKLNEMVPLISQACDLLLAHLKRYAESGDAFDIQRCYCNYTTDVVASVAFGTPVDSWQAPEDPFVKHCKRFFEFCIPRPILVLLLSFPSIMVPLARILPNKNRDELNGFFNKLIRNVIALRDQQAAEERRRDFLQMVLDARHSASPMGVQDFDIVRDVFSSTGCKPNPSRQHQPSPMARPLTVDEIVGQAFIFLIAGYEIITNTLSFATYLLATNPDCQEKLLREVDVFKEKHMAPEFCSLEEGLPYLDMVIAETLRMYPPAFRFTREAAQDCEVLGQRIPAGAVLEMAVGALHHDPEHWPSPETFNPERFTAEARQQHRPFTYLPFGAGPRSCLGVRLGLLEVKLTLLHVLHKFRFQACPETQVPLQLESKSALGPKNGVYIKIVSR
Kind of experiment: biochemical. The experiment is classed as tissue-based, Platelet. The following applies: platelet.
Take `COc1cccc2c1C(=O)c1c(O)c3c(c(O)c1C2=O)C[C@@](O)(C(=O)CO)C[C@@H]3O[C@H]1C[C@H](N)[C@H](O)[C@H](C)O1` [DOXORUBICIN]: the IC50 entry is “Not Active”.

Turning to `COc1cccc2c1C(=O)c1c(O)c3c(c(O)c1C2=O)C[C@@](O)(C(=O)CO)C[C@@H]3O[C@H]1C[C@H](N)[C@@H](O)[C@H](C)O1` [EPIRUBICIN], the IC50 result is given as “Not Active”.

Regarding `C[C@]12CC[C@@H]3c4ccc(OC(=O)c5ccccc5)cc4CC[C@H]3[C@@H]1CC[C@@H]2O` [ESTRADIOL BENZOATE], the IC50 result is recorded as “Not Active”.

For a further experiment, the target named is Prostaglandin G/H synthase 1 (Homo sapiens, UniProt P23219). The experiment in a line: biochemical. It is filed as tissue-based, Platelet. The settings on record: platelet.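 Note: inhibition of COX-1 enzyme activity, with arachidonic acid supplied as substrate; in other assays of this panel Not Active means under 50% inhibition at 10 µM.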
Prostaglandin G/H synthase 1, sequence (P23219 whole entry): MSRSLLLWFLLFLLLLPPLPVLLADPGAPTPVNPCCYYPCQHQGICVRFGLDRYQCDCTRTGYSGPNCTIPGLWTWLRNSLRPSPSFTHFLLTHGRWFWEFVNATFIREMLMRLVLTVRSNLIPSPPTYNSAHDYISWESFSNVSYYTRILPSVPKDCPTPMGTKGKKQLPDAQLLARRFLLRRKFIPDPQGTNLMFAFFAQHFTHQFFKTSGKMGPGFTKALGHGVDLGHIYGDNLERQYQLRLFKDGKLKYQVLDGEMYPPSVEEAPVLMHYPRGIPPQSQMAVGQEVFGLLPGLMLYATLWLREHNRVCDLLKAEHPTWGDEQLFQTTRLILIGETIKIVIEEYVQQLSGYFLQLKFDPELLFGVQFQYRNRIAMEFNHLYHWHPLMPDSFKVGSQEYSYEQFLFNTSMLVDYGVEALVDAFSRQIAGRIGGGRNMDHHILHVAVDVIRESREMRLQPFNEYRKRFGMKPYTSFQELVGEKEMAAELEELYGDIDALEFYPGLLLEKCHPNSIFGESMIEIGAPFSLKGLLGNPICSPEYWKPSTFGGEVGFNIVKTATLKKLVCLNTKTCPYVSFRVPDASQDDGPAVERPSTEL
`COc1cccc2c1C(=O)c1c(O)c3c(c(O)c1C2=O)C[C@@](O)(C(=O)CO)C[C@@H]3O[C@H]1C[C@H](N)[C@H](O)[C@H](C)O1` [DOXORUBICIN]: the IC50 result is on record as “Not Active”.

In the case of `COc1cccc2c1C(=O)c1c(O)c3c(c(O)c1C2=O)C[C@@](O)(C(=O)CO)C[C@@H]3O[C@H]1C[C@H](N)[C@@H](O)[C@H](C)O1` [EPIRUBICIN], the IC50 result is recorded as “Not Active”.

In the case of `C[C@]12CC[C@@H]3c4ccc(OC(=O)c5ccccc5)cc4CC[C@H]3[C@@H]1CC[C@@H]2O` [ESTRADIOL BENZOATE], the IC50 entry is recorded as “Not Active”.

The next experiment deals with Glycine receptor (Rattus norvegicus, UniProt P22771+P24524+P07727+P20781).
Assay: not given
It is filed as cell membranes, Wistar, Spinal cord, Membrane.
Settings: not given
On to `COc1cccc2c1C(=O)c1c(O)c3c(c(O)c1C2=O)C[C@@](O)(C(=O)CO)C[C@@H]3O[C@H]1C[C@H](N)[C@H](O)[C@H](C)O1` [DOXORUBICIN], for which the IC50 result is reported as “Not Active”.

For the compound `COc1cccc2c1C(=O)c1c(O)c3c(c(O)c1C2=O)C[C@@](O)(C(=O)CO)C[C@@H]3O[C@H]1C[C@H](N)[C@@H](O)[C@H](C)O1` [EPIRUBICIN], the IC50 result was “Not Active”.

With `C[C@]12CC[C@@H]3c4ccc(OC(=O)c5ccccc5)cc4CC[C@H]3[C@@H]1CC[C@@H]2O` [ESTRADIOL BENZOATE], the IC50 entry was “Not Active”.

In the next experiment the target is T3, Cathepsin G (Homo sapiens, UniProt P08311).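 Note: inhibition of Cathepsin G enzyme activity, tested on an AMC-conjugated peptide substrate; in other assays of this panel Not Active means under 50% inhibition at 10 µM.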
T3 sequence (P08311 whole entry): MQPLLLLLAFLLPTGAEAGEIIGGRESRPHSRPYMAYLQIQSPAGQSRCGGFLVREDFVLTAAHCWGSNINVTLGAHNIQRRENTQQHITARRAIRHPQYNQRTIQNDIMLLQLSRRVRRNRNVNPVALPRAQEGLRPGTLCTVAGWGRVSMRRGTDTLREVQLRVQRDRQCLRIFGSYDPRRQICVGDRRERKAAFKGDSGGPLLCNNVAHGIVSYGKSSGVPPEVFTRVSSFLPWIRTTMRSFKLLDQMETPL
Assay: not given
It is filed as tissue-based. The following applies: neutrophil.
`COc1cccc2c1C(=O)c1c(O)c3c(c(O)c1C2=O)C[C@@](O)(C(=O)CO)C[C@@H]3O[C@H]1C[C@H](N)[C@H](O)[C@H](C)O1` [DOXORUBICIN]: the IC50 result is “Not Active”.

With `COc1cccc2c1C(=O)c1c(O)c3c(c(O)c1C2=O)C[C@@](O)(C(=O)CO)C[C@@H]3O[C@H]1C[C@H](N)[C@@H](O)[C@H](C)O1` [EPIRUBICIN], the IC50 result is on record as “Not Active”.

As for `C[C@]12CC[C@@H]3c4ccc(OC(=O)c5ccccc5)cc4CC[C@H]3[C@@H]1CC[C@@H]2O` [ESTRADIOL BENZOATE], the IC50 result is “Not Active”.

The next experiment deals with T4, Interstitial collagenase (Homo sapiens, UniProt P03956).
T4 sequence (P03956 whole entry): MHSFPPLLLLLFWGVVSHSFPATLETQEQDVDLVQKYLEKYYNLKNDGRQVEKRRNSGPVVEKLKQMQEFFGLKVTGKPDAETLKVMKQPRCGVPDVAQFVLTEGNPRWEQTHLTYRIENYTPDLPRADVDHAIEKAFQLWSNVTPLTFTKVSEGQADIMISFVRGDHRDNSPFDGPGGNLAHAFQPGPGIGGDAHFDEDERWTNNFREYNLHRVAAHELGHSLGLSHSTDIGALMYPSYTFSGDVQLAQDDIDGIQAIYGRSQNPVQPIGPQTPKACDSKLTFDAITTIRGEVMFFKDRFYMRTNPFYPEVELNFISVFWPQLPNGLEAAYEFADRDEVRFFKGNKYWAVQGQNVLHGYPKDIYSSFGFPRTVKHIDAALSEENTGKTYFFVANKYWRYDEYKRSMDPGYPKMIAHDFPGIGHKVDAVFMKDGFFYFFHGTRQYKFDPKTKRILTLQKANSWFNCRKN
Kind of experiment: biochemical. It is filed as tissue-based, Rheumatoid synovial fibroblasts.
Settings: not given
Regarding `COc1cccc2c1C(=O)c1c(O)c3c(c(O)c1C2=O)C[C@@](O)(C(=O)CO)C[C@@H]3O[C@H]1C[C@H](N)[C@H](O)[C@H](C)O1` [DOXORUBICIN], the IC50 result is given as “Not Active”.

As to `COc1cccc2c1C(=O)c1c(O)c3c(c(O)c1C2=O)C[C@@](O)(C(=O)CO)C[C@@H]3O[C@H]1C[C@H](N)[C@@H](O)[C@H](C)O1` [EPIRUBICIN], the IC50 result is on record as “Not Active”.

Turning to `C[C@]12CC[C@@H]3c4ccc(OC(=O)c5ccccc5)cc4CC[C@H]3[C@@H]1CC[C@@H]2O` [ESTRADIOL BENZOATE], the IC50 result is listed as “Not Active”.

In the next experiment the target is T5, Leukotriene C4 synthase (Cavia porcellus, UniProt A6XA80).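 Note: enzyme inhibition assay of leukotriene C4 synthase, using LTA4 as the substrate; in other assays of this panel Not Active means under 50% inhibition at 10 µM.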
T5 sequence (A6XA80 whole entry): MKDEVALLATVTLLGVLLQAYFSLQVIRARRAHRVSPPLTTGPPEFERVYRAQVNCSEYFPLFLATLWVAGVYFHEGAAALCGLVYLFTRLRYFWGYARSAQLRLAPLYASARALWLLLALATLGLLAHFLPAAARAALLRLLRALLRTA
Assay: not given
It is filed as tissue-based, Lung.
Settings: not given
As for `COc1cccc2c1C(=O)c1c(O)c3c(c(O)c1C2=O)C[C@@](O)(C(=O)CO)C[C@@H]3O[C@H]1C[C@H](N)[C@H](O)[C@H](C)O1` [DOXORUBICIN], the IC50 result is on record as “Not Active”.

For `COc1cccc2c1C(=O)c1c(O)c3c(c(O)c1C2=O)C[C@@](O)(C(=O)CO)C[C@@H]3O[C@H]1C[C@H](N)[C@@H](O)[C@H](C)O1` [EPIRUBICIN], the IC50 result is given as “Not Active”.

On to `C[C@]12CC[C@@H]3c4ccc(OC(=O)c5ccccc5)cc4CC[C@H]3[C@@H]1CC[C@@H]2O` [ESTRADIOL BENZOATE], for which the IC50 result is given as “Not Active”.

The target of a further experiment is T6, C-X-C chemokine receptor type 1 (Homo sapiens, UniProt P25024). Note: in other assays of this panel Not Active means under 50% inhibition at 10 µM.
T6 sequence (P25024 whole entry): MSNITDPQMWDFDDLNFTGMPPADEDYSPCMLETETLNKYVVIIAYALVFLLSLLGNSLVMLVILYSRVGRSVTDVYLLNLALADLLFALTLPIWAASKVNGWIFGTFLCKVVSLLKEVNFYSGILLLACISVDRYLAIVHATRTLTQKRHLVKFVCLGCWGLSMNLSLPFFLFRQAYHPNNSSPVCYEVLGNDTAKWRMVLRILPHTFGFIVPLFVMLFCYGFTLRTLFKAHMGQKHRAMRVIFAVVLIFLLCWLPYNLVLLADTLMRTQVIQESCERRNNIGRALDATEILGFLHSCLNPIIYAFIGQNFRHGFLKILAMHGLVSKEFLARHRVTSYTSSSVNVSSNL
Assay: not given
Settings: not given
For the compound `COc1cccc2c1C(=O)c1c(O)c3c(c(O)c1C2=O)C[C@@](O)(C(=O)CO)C[C@@H]3O[C@H]1C[C@H](N)[C@H](O)[C@H](C)O1` [DOXORUBICIN], the IC50 entry is on record as “Not Active”.

In the case of `COc1cccc2c1C(=O)c1c(O)c3c(c(O)c1C2=O)C[C@@](O)(C(=O)CO)C[C@@H]3O[C@H]1C[C@H](N)[C@@H](O)[C@H](C)O1` [EPIRUBICIN], the IC50 entry was “Not Active”.

With `C[C@]12CC[C@@H]3c4ccc(OC(=O)c5ccccc5)cc4CC[C@H]3[C@@H]1CC[C@@H]2O` [ESTRADIOL BENZOATE], the IC50 result was “Not Active”.

The target in a further experiment is T7, Neutrophil elastase (Homo sapiens, UniProt P08246).
T7 sequence (P08246 whole entry): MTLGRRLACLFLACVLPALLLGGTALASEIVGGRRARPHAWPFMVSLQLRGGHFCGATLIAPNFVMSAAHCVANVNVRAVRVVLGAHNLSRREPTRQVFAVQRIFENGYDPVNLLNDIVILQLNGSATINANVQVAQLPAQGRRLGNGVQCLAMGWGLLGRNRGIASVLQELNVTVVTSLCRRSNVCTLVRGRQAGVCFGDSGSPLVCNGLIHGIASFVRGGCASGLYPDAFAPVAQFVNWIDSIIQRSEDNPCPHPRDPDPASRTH
Assay: not given
The experiment is classed as tissue-based.
Settings: not given
For `COc1cccc2c1C(=O)c1c(O)c3c(c(O)c1C2=O)C[C@@](O)(C(=O)CO)C[C@@H]3O[C@H]1C[C@H](N)[C@H](O)[C@H](C)O1` [DOXORUBICIN], the IC50 result was “Not Active”.

For the compound `COc1cccc2c1C(=O)c1c(O)c3c(c(O)c1C2=O)C[C@@](O)(C(=O)CO)C[C@@H]3O[C@H]1C[C@H](N)[C@@H](O)[C@H](C)O1` [EPIRUBICIN], the IC50 result is reported as “Not Active”.

As to `C[C@]12CC[C@@H]3c4ccc(OC(=O)c5ccccc5)cc4CC[C@H]3[C@@H]1CC[C@@H]2O` [ESTRADIOL BENZOATE], the IC50 entry is given as “Not Active”.
